In one experiment the target is KIT (c-Kit) (Homo sapiens, UniProt P10721). Description: Radiometric kinase assay. Type of experiment: biochemical. Conditions: read-out: Kinase inhibition (%) KIT (c-Kit).
In another experiment the target is AKT1 (Homo sapiens, UniProt P31749). The experiment in a line: Radiometric kinase assay. Type of experiment: biochemical. Conditions: read-out: Kinase inhibition (%) AKT1.
A further experiment addresses AKT2 (Homo sapiens, UniProt P31751). Description: Radiometric kinase assay. In kind it is biochemical. The note with it: read-out: Kinase inhibition (%) AKT2.
A further experiment has as its target CDK2/cyclin A (Homo sapiens, UniProt P24941). Description: Radiometric kinase assay. Type of experiment: biochemical. Conditions: read-out: Kinase inhibition (%) CDK2/cyclin A.
Another experiment deals with MET (Homo sapiens, UniProt P08581). The experiment in a line: Radiometric kinase assay. In kind it is biochemical. The note with it: read-out: Kinase inhibition (%) MET.
The next experiment concerns the target PDGFRA (PDGFRα) (Homo sapiens, UniProt P16234). Description: Radiometric kinase assay. In kind it is biochemical. The note with it: read-out: Kinase inhibition (%) PDGFRA (PDGFRα).
A further experiment concerns the target NTRK1 (TrkA) (Homo sapiens, UniProt P04629). Description: Radiometric kinase assay. In kind it is biochemical. The note with it: read-out: Kinase inhibition (%) NTRK1 (TrkA).
Another experiment concerns the target KDR (VEGFR2) (Homo sapiens, UniProt P35968). The experiment in a line: Radiometric kinase assay. Type of experiment: biochemical. The note with it: read-out: Kinase inhibition (%) KDR (VEGFR2).
The target of another experiment is FGFR1 (Homo sapiens, UniProt P11362). The experiment in a line: Radiometric kinase assay. The note with it: read-out: Kinase inhibition (%) FGFR1. In kind it is biochemical.
Another experiment concerns the target FLT3 (Homo sapiens, UniProt P36888). Description: Radiometric kinase assay. Type of experiment: biochemical. The note with it: read-out: Kinase inhibition (%) FLT3.
In the next experiment the test system is Mia-Paca-2. The experiment in a line: MTT antiproliferative assay, Mia-Paca-2. In kind it is cell-based, human. The note with it: Homo sapiens, MIA PaCa-2, 72 h, read-out: IC50 Mia-Paca-2.
In the next experiment the test system is EBC-1. The experiment in a line: MTT antiproliferative assay, EBC-1. Type of experiment: cell-based, human. Conditions: Homo sapiens, EBC-1, 72 h, read-out: IC50 EBC-1.
The subject of a further experiment is MCF-7. Description: MTT antiproliferative assay, MCF-7. Type of experiment: cell-based, human. Conditions: Homo sapiens, MCF7, 72 h, read-out: IC50 MCF-7. (In general: Tetrazolium assays rely on reduction of a dye to a coloured formazan, in cell work by metabolically active cells.)
The next experiment concerns NIH3T3. The experiment in a line: MTT assay, NIH3T3 non-cancer cell line. Type of experiment: cell-based. The note with it: Mus musculus, NIH3T3, 72 h, read-out: IC50 NIH3T3.
The next experiment has as its target FLT1 (VEGFR1) (Homo sapiens, UniProt P17948). The experiment in a line: Radiometric kinase assay. In kind it is biochemical. The note with it: read-out: Kinase inhibition (%) FLT1 (VEGFR1).
The test system of another experiment is AsPC-1. The experiment in a line: MTT antiproliferative assay, AsPC-1. Type of experiment: cell-based, human. The note with it: Homo sapiens, ASPC1, 72 h, read-out: IC50 AsPC-1.
A further experiment has as its target EGFR (Homo sapiens, UniProt P00533). Description: Radiometric kinase assay. Type of experiment: biochemical. Conditions: read-out: Kinase inhibition (%) EGFR.
For the next experiment, the target named is ABL1 (Homo sapiens, UniProt P00519). Description: Radiometric kinase assay. In kind it is biochemical. Conditions: read-out: Kinase inhibition (%) ABL1.
The test system of the next experiment is HT-29. The experiment in a line: MTT antiproliferative assay, HT-29. Type of experiment: cell-based, human. Conditions: Homo sapiens, HT-29, 72 h, read-out: IC50 HT-29.
For another experiment, the target named is T1, AXL (Homo sapiens, UniProt P30530).
T1 sequence (P30530 26-894): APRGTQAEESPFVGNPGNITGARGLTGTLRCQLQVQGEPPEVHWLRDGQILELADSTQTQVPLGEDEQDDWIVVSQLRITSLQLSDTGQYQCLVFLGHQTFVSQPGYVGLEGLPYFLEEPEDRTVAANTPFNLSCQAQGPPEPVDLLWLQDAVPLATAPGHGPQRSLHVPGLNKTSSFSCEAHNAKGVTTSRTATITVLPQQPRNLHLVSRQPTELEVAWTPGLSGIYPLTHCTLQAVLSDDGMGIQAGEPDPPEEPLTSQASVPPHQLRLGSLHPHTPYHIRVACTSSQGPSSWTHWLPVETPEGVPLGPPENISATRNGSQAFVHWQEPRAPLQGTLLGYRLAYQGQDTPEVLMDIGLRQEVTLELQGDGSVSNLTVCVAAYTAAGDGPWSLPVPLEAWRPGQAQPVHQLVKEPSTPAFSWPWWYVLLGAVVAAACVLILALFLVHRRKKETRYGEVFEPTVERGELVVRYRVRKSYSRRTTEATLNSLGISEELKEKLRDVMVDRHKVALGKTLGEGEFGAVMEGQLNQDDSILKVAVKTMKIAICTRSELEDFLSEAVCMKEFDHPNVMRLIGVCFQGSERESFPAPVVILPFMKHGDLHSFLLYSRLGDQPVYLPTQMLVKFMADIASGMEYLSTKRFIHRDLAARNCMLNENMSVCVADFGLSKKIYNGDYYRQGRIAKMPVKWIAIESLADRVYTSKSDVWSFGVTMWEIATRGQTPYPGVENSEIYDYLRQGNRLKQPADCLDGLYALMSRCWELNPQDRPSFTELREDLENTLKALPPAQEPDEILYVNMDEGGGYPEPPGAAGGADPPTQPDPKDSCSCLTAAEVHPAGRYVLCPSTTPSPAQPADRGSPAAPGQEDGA
Description: Radiometric kinase assay. Type of experiment: biochemical. The note with it: read-out: Kinase inhibition (%) AXL.

In a further experiment the target is PDGFRB (PDGFRβ) (Homo sapiens, UniProt P09619). Description: Radiometric kinase assay. Conditions: read-out: Kinase inhibition (%) PDGFRB (PDGFRβ). In kind it is biochemical.
The target of another experiment is NTRK2 (TrkB) (Homo sapiens, UniProt Q16620). Description: Radiometric kinase assay. Type of experiment: biochemical. The note with it: read-out: Kinase inhibition (%) NTRK2 (TrkB).
For a further experiment, the target named is ALK (Homo sapiens, UniProt Q9UM73). Description: Radiometric kinase assay. In kind it is biochemical. Conditions: read-out: Kinase inhibition (%) ALK.
Chain of ALK (Q9UM73 19-1620): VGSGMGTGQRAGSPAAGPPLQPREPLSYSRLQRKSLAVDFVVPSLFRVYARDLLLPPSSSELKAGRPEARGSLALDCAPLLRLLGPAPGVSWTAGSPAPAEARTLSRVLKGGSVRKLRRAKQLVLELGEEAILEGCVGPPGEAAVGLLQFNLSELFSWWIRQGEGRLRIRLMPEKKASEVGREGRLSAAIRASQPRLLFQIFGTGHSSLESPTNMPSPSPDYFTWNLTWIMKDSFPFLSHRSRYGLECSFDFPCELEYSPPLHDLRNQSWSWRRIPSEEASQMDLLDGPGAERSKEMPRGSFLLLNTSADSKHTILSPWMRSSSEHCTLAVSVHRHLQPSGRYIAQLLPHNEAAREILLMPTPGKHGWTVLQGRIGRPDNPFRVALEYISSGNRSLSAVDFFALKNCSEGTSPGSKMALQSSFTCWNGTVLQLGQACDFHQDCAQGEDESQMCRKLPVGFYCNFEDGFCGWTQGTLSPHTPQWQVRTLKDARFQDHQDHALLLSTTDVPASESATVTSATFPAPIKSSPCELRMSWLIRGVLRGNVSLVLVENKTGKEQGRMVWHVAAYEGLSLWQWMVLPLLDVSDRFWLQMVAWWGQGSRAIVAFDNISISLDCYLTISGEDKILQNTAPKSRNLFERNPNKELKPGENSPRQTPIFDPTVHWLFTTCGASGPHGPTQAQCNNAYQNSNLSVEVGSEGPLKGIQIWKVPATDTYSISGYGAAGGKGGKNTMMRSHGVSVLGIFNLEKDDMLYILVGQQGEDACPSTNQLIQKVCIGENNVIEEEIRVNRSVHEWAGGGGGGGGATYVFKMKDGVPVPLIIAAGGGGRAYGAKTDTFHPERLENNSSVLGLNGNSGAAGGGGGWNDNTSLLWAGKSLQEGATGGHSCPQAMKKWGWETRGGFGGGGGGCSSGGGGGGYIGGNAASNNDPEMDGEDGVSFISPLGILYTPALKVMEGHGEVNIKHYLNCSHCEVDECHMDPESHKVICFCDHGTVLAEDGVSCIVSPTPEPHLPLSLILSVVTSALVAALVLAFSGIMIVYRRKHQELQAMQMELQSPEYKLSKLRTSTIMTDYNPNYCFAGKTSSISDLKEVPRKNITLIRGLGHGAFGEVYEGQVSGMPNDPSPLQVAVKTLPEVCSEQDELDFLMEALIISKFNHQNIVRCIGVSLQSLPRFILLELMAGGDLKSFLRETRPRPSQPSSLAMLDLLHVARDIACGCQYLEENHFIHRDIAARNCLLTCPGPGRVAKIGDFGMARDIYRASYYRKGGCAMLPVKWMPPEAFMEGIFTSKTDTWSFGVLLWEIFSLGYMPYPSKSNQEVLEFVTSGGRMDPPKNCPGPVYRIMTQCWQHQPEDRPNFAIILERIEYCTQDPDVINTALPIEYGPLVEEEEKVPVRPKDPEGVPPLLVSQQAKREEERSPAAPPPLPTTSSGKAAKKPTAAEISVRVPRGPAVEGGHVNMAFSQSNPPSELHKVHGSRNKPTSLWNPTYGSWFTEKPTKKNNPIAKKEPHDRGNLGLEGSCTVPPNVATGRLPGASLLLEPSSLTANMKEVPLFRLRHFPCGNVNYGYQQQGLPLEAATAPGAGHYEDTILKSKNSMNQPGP

Chain of FLT1 (VEGFR1) (P17948 27-1338): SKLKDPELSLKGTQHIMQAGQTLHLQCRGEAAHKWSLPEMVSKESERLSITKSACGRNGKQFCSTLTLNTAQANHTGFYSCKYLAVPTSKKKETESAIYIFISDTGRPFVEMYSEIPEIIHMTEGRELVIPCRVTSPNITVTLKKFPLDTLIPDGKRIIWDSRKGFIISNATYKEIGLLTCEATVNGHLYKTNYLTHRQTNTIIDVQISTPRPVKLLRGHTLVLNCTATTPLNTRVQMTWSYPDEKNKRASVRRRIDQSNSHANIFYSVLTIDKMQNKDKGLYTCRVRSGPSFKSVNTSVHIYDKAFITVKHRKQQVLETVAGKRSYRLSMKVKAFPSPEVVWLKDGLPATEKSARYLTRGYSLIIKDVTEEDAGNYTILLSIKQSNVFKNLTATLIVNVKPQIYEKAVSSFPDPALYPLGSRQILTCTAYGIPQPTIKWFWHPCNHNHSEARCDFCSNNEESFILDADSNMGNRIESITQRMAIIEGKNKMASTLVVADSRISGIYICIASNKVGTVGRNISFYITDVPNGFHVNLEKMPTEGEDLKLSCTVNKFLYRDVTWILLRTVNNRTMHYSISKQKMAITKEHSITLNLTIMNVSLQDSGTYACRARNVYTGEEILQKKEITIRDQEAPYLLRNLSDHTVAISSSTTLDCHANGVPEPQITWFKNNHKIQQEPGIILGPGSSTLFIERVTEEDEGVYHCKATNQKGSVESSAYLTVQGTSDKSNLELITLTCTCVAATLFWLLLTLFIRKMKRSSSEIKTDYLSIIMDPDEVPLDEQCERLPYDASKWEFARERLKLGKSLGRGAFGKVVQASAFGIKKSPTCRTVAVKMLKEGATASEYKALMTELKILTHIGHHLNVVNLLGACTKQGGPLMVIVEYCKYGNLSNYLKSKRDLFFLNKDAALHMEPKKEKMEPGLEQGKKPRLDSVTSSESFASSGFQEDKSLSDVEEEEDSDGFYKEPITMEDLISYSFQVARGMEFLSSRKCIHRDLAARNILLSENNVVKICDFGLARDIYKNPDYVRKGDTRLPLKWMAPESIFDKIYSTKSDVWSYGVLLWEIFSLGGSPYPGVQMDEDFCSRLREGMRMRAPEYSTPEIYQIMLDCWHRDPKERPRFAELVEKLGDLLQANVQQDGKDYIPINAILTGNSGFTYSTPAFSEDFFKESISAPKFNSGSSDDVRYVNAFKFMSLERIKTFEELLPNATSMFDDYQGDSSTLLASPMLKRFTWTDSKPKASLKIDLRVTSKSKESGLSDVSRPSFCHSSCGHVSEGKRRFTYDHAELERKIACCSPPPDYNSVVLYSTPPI
Chain of PDGFRB (PDGFRβ) (P09619 33-1106): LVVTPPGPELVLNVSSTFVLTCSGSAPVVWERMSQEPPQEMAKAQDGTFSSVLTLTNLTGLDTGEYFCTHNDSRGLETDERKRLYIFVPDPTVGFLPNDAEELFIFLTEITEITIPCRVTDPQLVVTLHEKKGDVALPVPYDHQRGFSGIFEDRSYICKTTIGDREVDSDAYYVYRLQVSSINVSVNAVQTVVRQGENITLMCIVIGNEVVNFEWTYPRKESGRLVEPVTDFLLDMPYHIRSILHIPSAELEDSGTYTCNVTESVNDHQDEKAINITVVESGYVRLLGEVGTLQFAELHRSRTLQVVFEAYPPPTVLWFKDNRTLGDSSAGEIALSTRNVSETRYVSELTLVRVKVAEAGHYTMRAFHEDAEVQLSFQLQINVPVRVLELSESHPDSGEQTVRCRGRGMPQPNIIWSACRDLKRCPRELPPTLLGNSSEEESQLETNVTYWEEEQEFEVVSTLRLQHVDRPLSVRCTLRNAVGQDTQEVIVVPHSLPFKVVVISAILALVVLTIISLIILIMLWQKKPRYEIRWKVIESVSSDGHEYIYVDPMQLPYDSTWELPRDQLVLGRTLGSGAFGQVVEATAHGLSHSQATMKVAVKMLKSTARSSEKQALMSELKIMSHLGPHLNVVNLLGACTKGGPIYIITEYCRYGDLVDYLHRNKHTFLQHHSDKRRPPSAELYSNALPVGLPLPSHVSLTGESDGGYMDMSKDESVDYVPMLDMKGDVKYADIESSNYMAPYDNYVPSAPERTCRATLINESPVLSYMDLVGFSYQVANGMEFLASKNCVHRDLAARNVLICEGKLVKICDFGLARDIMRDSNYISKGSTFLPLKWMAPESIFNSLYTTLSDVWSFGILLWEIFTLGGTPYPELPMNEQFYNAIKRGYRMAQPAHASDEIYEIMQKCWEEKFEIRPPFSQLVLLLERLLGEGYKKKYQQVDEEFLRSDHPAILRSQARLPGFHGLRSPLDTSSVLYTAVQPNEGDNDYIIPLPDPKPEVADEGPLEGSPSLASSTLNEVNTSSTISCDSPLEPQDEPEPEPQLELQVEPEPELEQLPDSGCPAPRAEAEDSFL
Chain of FGFR1 (P11362 22-822): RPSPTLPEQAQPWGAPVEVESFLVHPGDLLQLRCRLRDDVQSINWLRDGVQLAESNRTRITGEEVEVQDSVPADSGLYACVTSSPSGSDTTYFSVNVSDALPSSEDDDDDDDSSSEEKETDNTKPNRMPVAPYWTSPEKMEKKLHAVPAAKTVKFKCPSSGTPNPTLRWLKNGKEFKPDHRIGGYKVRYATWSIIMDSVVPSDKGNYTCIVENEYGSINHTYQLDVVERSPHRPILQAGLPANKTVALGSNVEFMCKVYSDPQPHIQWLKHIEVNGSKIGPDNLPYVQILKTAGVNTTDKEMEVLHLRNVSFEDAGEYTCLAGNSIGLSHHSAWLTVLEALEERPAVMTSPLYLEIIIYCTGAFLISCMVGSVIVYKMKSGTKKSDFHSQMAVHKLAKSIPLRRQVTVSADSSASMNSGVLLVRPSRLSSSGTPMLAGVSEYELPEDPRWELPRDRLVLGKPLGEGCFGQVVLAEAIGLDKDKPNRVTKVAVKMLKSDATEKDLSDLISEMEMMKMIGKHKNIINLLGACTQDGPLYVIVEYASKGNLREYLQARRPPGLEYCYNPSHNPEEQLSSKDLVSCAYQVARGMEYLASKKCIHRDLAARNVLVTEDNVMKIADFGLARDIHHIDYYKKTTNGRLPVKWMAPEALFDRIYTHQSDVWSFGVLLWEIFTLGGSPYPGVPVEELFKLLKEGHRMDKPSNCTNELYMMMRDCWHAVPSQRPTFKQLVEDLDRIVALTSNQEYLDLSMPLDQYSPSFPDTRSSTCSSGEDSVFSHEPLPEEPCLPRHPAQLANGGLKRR

What is called IC50 is the midpoint of a concentration-inhibition curve. Turning to `O=C1C=C(Nc2ccc(OCc3cn(Cc4ccc(Br)cc4)nn3)cc2)C(=O)c2ccccc21` [Compound 4b, 2-((4-((1-(4-Bromobenzyl)−1H-1,2,3-triazol-4 yl)methoxy)phenyl)amino) naphthalene-1,4-dione], the inhibition at 10 µM is -9% at KIT (c-Kit); 9% on AKT1; -10% at AKT2; 32% on CDK2/cyclin A; -8% on MET; 37% on PDGFRA (PDGFRα). In addition, the inhibition at 10 µM on NTRK1 (TrkA) was 4%; on KDR (VEGFR2), -19%; on FGFR1, 1%; at FLT3, -3%; on FLT1 (VEGFR1), -17%; at EGFR it was -9%. Further, the inhibition at 10 µM is 2% on ABL1; 5% on AXL; 17% on PDGFRB (PDGFRβ); 13% at NTRK2 (TrkB); 2% at ALK. For the same compound, the IC50 in the experiment with Mia-Paca-2 was 1.3 ± 0.4 µM; in the experiment on EBC-1, 2 ± 1.2 µM; in the experiment on MCF-7 it was over 100 µM; with NIH3T3, 50.9 ± 8.8 µM; in the experiment on AsPC-1 it was 30.7 ± 2.2 µM; in the experiment with HT-29 it was 56.9 ± 4.3 µM.

Source of the values: publication PMC11850817 (Scientific Reports, 2025).
